Literature values in patent publication US4818687A (priority 1985, dated 1989).

Test system: human liver cancer

Structure (SMILES): COc1cc2c(c3oc(=O)c4c(c13)CCC4=O)[C@@H]1C=CO[C@@H]1O2 [aflatoxin B1]
- association with human liver cancer: statistically associated with increased incidence of human liver cancer
